Results published in patent US10239843B2 (CANCER RESEARCH TECHNOLOGY LIMITED, priority 2014, dated 2019).
Like-named read-outs stand apart in the source and are kept apart here.

Experiments:
[1] = target: Human Full Length PARG (Homo sapiens (Human), UniProt Q86W56); experiment: PARG enzyme assay (TR-FRET); type: biochemical
[2] = test system: PARG in HeLa cell line; experiment: PARG cell assay (PAR chain immunofluorescence after MMS); type: cell-based; settings: HeLa cells
How it was run: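 HeLa cells were dosed with compound for 1 h, then given MMS at 50 μg/mL final for a further hour. Cells were methanol-fixed, permeabilised and stained overnight at 4° C with anti-PAR monoclonal antibody. Retained nuclear PAR chains, detected by indirect immunofluorescence, indicate PARG inhibition.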

[3] = read-out: PARG Biochem IC50 Geomean
[4] = Homo sapiens, MMS 50 μg/mL, read-out: PARG Cell IC50 Geomean
[5] = Homo sapiens, MMS treatment, read-out: PARG Cell IC50
[6] = MMS 50 μg/mL, read-out: PARG Cell IC50 Geomean
[7] = MMS treatment, read-out: PARG Cell IC50

Sequence of Human Full Length PARG (Q86W56 whole entry): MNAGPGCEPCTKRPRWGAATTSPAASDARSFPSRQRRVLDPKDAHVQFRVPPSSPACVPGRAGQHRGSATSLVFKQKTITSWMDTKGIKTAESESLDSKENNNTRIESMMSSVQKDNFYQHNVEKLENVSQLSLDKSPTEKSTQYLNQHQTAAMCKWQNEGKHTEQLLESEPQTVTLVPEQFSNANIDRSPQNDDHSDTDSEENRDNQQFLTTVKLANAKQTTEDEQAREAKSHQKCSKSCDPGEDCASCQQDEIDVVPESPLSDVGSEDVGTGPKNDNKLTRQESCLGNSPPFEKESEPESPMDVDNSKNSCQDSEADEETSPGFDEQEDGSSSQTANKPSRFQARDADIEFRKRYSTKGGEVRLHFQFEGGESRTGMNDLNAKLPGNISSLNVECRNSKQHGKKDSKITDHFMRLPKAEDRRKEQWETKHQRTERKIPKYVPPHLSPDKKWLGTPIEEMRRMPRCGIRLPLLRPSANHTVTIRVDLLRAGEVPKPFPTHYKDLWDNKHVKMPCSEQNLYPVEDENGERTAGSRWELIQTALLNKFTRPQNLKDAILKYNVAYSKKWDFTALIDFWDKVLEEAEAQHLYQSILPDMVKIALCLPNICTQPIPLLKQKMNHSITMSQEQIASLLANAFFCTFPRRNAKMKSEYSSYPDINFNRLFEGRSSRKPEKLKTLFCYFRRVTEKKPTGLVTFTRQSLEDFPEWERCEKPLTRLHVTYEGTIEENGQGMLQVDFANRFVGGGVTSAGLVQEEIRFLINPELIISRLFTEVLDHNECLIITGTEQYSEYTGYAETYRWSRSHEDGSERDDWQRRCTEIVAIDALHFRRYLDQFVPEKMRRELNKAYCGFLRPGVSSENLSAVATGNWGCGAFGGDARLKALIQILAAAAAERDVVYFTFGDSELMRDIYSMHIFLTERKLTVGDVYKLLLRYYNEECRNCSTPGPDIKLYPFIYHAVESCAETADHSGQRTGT

Row | IC50 [1, 3] | IC50 [2, 4] | IC50 ([1]; read-out: PARG Biochem IC50) | IC50 [2, 5] | further results | SMILES
1 | 356 nM | 462 nM | – | – | – | CCOC(=O)Cn1c(=O)n(Cc2cc(C)no2)c(=O)c2cc(S(=O)(=O)NC3(C)CC3)ccc21 [Example 332]
2 | – | – | 273 nM | 198 nM | – | Cc1cc(Cn2c(=O)c3cc(S(=O)(=O)NC4(C)CC4)ccc3n(CCC(C)C)c2=O)on1 [Example 472, 1-Isopentyl-N-(1-methylcyclopropyl)-3-[(3-methylisoxazol-5-yl)methyl]-2,4-dioxo-quinazoline-6-sulfonamide]
3 | 353 nM | – | – | – | IC50 [2, 6]: 340 nM | CC(=O)Cn1c(=O)n(Cc2cnn(C)c2)c(=O)c2cc(S(=O)(=O)NC3(C)CC3)ccc21 [Example 367]
4 | 52 nM | 126 nM | – | – | – | C#CCn1c(=O)n(Cc2cnn(C)c2)c(=O)c2cc(S(=O)(=O)NC3(C)CC3)ccc21 [Example 178]
5 | 417 nM | 772 nM | – | – | – | Cc1cc(Cn2c(=O)c3cc(S(=O)(=O)NC4(C)CC4)ccc3n(CCO)c2=O)on1 [Example 337]
6 | 418 nM | 6480 nM | – | – | – | CN(C)C(=O)Cn1c(=O)n(Cc2cnn(C)c2)c(=O)c2cc(S(=O)(=O)NC3(C)CC3)ccc21 [Example 265]
7 | 55 nM | 47 nM | – | – | – | Cc1ncc(Cn2c(=O)c3cc(S(=O)(=O)NC4(C)CC4)ccc3n(Cc3cc(C(F)(F)F)nn3C)c2=O)s1 [Example 231]
8 | – | – | 30 nM | 773 nM | – | Cn1cc(Cn2c(=O)c3cc(S(=O)(=O)NC4(CF)CC4)ccc3n(Cc3cn[nH]c3)c2=O)cn1 [Example 590, N-[1-(Fluoromethyl)cyclopropyl]-3-[(1-methylpyrazol-4-yl)methyl]-2,4-dioxo-1-(1H-pyrazol-4-ylmethyl)quinazoline-6-sulfonamide]
9 | – | – | 39 nM | 30 nM | – | Cn1cc(Cn2c(=O)c3cc(S(=O)(=O)NC4(CF)CC4)ccc3n(CC3CCC3)c2=O)cn1 [Example 461, 1-(Cyclobutylmethyl)-N-[1-(fluoromethyl)cyclopropyl]-3-[(1-methylpyrazol-4-yl)methyl]-2,4-dioxo-quinazoline-6-sulfonamide]
10 | 108 nM | – | – | – | IC50 [2, 6]: 217 nM | Cn1cc(Cn2c(=O)c3cc(S(=O)(=O)NC4(C)CC4)ccc3n(CCC(C)(C)O)c2=O)cn1 [Example 368]
11 | – | – | 472 nM | – | IC50 [2, 7]: 350 nM | Cc1nnc(Cn2c(=O)c3cc(S(=O)(=O)NC4(C)CC4)ccc3n(C)c2=O)s1 [Example 500, 1-Methyl-N-(1-methylcyclopropyl)-3-[(5-methyl-1,3,4-thiadiazol-2-yl)methyl]-2,4-dioxo-quinazoline-6-sulfonamide]
12 | – | – | 140 nM | – | IC50 [2, 7]: 91 nM | CC(C)Cn1c(=O)n(Cc2cnn(C)c2)c(=O)c2cc(S(=O)(=O)NC3(CF)CC3)ccc21 [Example 549, N-[1-(Fluoromethyl)cyclopropyl]-1-isobutyl-3-[(1-methylpyrazol-4-yl)methyl]-2,4-dioxo-quinazoline-6-sulfonamide]
13 | 342 nM | – | – | – | IC50 [2, 6]: 538 nM | Cn1c(=O)c2cc(S(=O)(=O)NC3(C)CC3)ccc2n(Cc2cncs2)c1=O [Example 143]
14 | 66 nM | 326 nM | – | – | – | Cn1cc(Cn2c(=O)c3cc(S(=O)(=O)NC4(C)CC4)c(F)cc3n(CC3COC3)c2=O)cn1 [Example 394, 7-Fluoro-N-(1-methylcyclopropyl)-3-[(1-methylpyrazol-4-yl)methyl]-1-(oxetan-3-ylmethyl)-2,4-dioxo-quinazoline-6-sulfonamide]
15 | – | – | 331 nM | 548 nM | – | Cc1cc(Cn2c(=O)c3cc(S(=O)(=O)NC4(C)CC4)ccc3n(CCCC(C)C)c2=O)on1 [Example 474, 1-Isohexyl-N-(1-methylcyclopropyl)-3-[(3-methylisoxazol-5-yl)methyl]-2,4-dioxo-quinazoline-6-sulfonamide]
16 | 105 nM | 76 nM | – | – | – | C#CCn1c(=O)n(Cc2cc(C)no2)c(=O)c2cc(S(=O)(=O)NC3(C)CC3)ccc21 [Example 198]
17 | – | – | 169 nM | – | IC50 [2, 7]: 315 nM | COCCCn1c(=O)n(Cc2cc(C)no2)c(=O)c2cc(S(=O)(=O)NC3(CF)CC3)ccc21 [Example 525, N-[1-(Fluoromethyl)cyclopropyl]-1-(3-methoxypropyl)-3-[(3-methylisoxazol-5-yl)methyl]-2,4-dioxo-quinazoline-6-sulfonamide]
18 | – | – | 140 nM | 163 nM | – | Cc1cc(Cn2c(=O)c3cc(S(=O)(=O)NC4(C)CC4)ccc3n(CC3(C#N)CC3)c2=O)on1 [Example 420, 1-[(1-Cyanocyclopropyl)methyl]-N-(1-methylcyclopropyl)-3-[(3-methylisoxazol-5-yl)methyl]-2,4-dioxo-quinazoline-6-sulfonamide]

Row | IC50 [1, 3] | IC50 [2, 4] | IC50 ([1]; read-out: PARG Biochem IC50) | IC50 [2, 5] | further results | SMILES
19 | – | – | 162 nM | – | IC50 [2, 7]: 92 nM | CCn1c(=O)n(Cc2cc(C)no2)c(=O)c2cc(S(=O)(=O)NC3(CF)CC3)ccc21 [Example 520, 1-Ethyl-N-[1-(fluoromethyl)cyclopropyl]-3-[(3-methylisoxazol-5-yl)methyl]-2,4-dioxo-quinazoline-6-sulfonamide]
20 | – | – | 3160 nM | – | IC50 [2, 7]: 1810 nM | Cn1ncc(Cn2c(=O)c3cc(S(=O)(=O)NC4(CF)CC4)ccc3n(C)c2=O)n1 [Example 626, N-[1-(Fluoromethyl)cyclopropyl]-1-methyl-3-[(2-methyltriazol-4-yl)methyl]-2,4-dioxo-quinazoline-6-sulfonamide]
21 | – | – | 25 nM | 22 nM | – | Cc1ncc(Cn2c(=O)n(Cc3cnn(C)c3)c(=O)c3cc(S(=O)(=O)NC4(CF)CC4)ccc32)s1 [Example 594, N-[1-(Fluoromethyl)cyclopropyl]-3-[(1-methylpyrazol-4-yl)methyl]-1-[(2-methylthiazol-5-yl)methyl]-2,4-dioxo-quinazoline-6-sulfonamide]
22 | – | – | 42 nM | 494 nM | – | Cc1ncc(Cn2c(=O)c3cc(S(=O)(=O)NC4(C#N)CC4)ccc3n(Cc3cnn(C)c3)c2=O)s1 [Example 457, N-(1-Cyanocyclopropyl)-1-[(1-methylpyrazol-4-yl)methyl]-3-[(2-methylthiazol-5-yl)methyl]-2,4-dioxo-quinazoline-6-sulfonamide]
23 | 307 nM | 853 nM | – | – | – | Cc1cc(Cn2c(=O)c3cc(S(=O)(=O)NC4(C)CC4)ccc3n(CCCN3CCN(C)CC3)c2=O)on1 [Example 342]
24 | – | – | 3710 nM | 1340 nM | – | CN(C)C(=O)Cn1c(=O)c2cc(S(=O)(=O)NC3(C)CC3)ccc2n(C)c1=O [Example 476, N,N-Dimethyl-2-[1-methyl-6-[(1-methylcyclopropyl)sulfamoyl]-2,4-dioxo-quinazolin-3-yl]acetamide]
25 | – | – | 73 nM | 187 nM | – | Cc1cncc(Cn2c(=O)n(Cc3cnn(C)c3)c(=O)c3cc(S(=O)(=O)NC4(CF)CC4)ccc32)c1 [Example 539, N-[1-(Fluoromethyl)cyclopropyl]-3-[(1-methylpyrazol-4-yl)methyl]-1-[(5-methyl-3-pyridyl)methyl]-2,4-dioxo-quinazoline-6-sulfonamide]
26 | – | – | 113 nM | 227 nM | – | Cc1cc(Cn2c(=O)n(Cc3cnn(C)c3)c(=O)c3cc(S(=O)(=O)NC4(CF)CC4)ccc32)ccn1 [Example 541, N-[1-(Fluoromethyl)cyclopropyl]-3-[(1-methylpyrazol-4-yl)methyl]-1-[(2-methyl-4-pyridyl)methyl]-2,4-dioxo-quinazoline-6-sulfonamide]
27 | – | – | 145 nM | 168 nM | – | Cc1noc(C)c1Cn1c(=O)n(Cc2cnn(C)c2)c(=O)c2cc(S(=O)(=O)NC3(CF)CC3)ccc21 [Example 545, 1-[(3,5-Dimethylisoxazol-4-yl)methyl]-N-[1-(fluoromethyl)cyclopropyl]-3-[(1-methylpyrazol-4-yl)methyl]-2,4-dioxo-quinazoline-6-sulfonamide]
28 | – | – | 494 nM | 27000 nM | – | CC(=O)NCc1cc(S(=O)(=O)NC2(C)CC2)cc2c(=O)n(Cc3cnn(C)c3)c(=O)[nH]c12 [Example 428, N-[[6-[(1-Methylcyclopropyl)sulfamoyl]-3-[(1-methylpyrazol-4-yl)methyl]-2,4-dioxo-1H-quinazolin-8-yl]methyl]acetamide]
29 | – | – | 144 nM | 238 nM | – | CCC(=O)Cn1c(=O)n(Cc2cnn(C)c2)c(=O)c2cc(S(=O)(=O)NC3(CF)CC3)ccc21 [Example 620, N-[1-(Fluoromethyl)cyclopropyl]-3-[(1-methylpyrazol-4-yl)methyl]-2,4-dioxo-1-(2-oxobutyl)quinazoline-6-sulfonamide]
30 | 6 nM | 20 nM | – | – | – | Cc1nc(C)c(Cn2c(=O)n(Cc3cnn(C)c3)c(=O)c3cc(S(=O)(=O)NC4(C)CC4)ccc32)s1 [Example 170]
31 | – | – | 170 nM | 530 nM | – | Cn1cc(Cn2c(=O)c3cc(S(=O)(=O)NC4(CF)CC4)ccc3n(CCC#N)c2=O)cn1 [Example 574, 1-(2-Cyanoethyl)-N-[1-(fluoromethyl)cyclopropyl]-3-[(1-methylpyrazol-4-yl)methyl]-2,4-dioxo-quinazoline-6-sulfonamide]
32 | – | – | 127 nM | 109 nM | – | Cn1cc(Cn2c(=O)c3cc(S(=O)(=O)NC4(CF)CC4)ccc3n(CC(F)F)c2=O)cn1 [Example 600, 1-(2,2-Difluoroethyl)-N-[1-(fluoromethyl)cyclopropyl]-3-[(1-methylpyrazol-4-yl)methyl]-2,4-dioxo-quinazoline-6-sulfonamide]
33 | 408 nM | 574 nM | – | – | – | CCc1nn(Cc2cc(C)no2)c(=O)c2cc(S(=O)(=O)NC3(C)CC3)ccc12 [Example 353]
34 | – | – | 1040 nM | 4350 nM | – | Cn1c(=O)n(Cc2nncs2)c(=O)c2cc(S(=O)(=O)NC3(CF)CC3)ccc21 [Example 624, N-[1-(Fluoromethyl)cyclopropyl]-1-methyl-2,4-dioxo-3-(1,3,4-thiadiazol-2-ylmethyl)quinazoline-6-sulfonamide]
35 | 44 nM | 1960 nM | – | – | – | Cn1cc(Cn2c(=O)c3cc(S(=O)(=O)NC4(C#N)CC4)ccc3n(Cc3cnn(C)c3)c2=O)cn1 [Example 378]
